Usually IC50 stands for the concentration at which inhibition is half-maximal. Lower therefore signals greater potency in that assay. For orientation: EC50 means the concentration that produces a half-maximal response.

Experiment [1] has as its system constitutively active mTOR. The experiment can be described thus: Test 3: TSC Assay (high content imaging of phospho-S6 (240/244) in TSC1−/− MEFs). The class given is cell-based. Conditions: Mus musculus, pS6 240/244 staining, 2 hrs compound treatment.
The test system of the next experiment is H4 mCherry-GFP-LC3 cells. The experiment is described as follows: Test 4: Autophagy Assay (mCherry-GFP-LC3 reporter, high-content imaging). Conditions: Homo sapiens, 16-18 h. Format: cell-based. From the text: Autophagy is a catabolic pathway that degrades bulk cytosol in lysosomal compartments enabling amino acids and fatty acids to be recycled. […] To quantify autophagy induction by mTOR inhibitors, we use a mCherry-GFP-LC3 reporter which is amenable to retroviral delivery into mammalian cells, stable expression and analysis by fluorescence microscopy.
Described hereinafter is an imaging protocol and image recognition algorithm to visualize and measure changes in the autophagic pathway.
Quantification of Autophagy Using High-Content Imaging and Analysis
• 1. Day 0: Cell plating. Subconfluent H4 mCherry-GFP-LC3 cells are harvested by trypsinization, resuspended in growth medium, and counted (H4 cells: Human neuroglioma cell line (ATCC)). A cell suspension of 66′000 cells/mL is prepared and 30 μL are added into the wells of a 384-well plate using an electronic multichannel pipette. […] The cell plates are briefly spun down and placed at 37° C. and 5% CO2. • 2. Day 1: Compound treatment. Compound dose responses are prepared in DMSO. The dose responses are then diluted 1:50 in medium. 10 ul of the diluted compound is added to 30 ul of cells, yielding a final 1:200 dilution of the original compound and final of 0.5% DMSO. Compound-treatments are performed in triplicates. The 384-well plates are placed at 37° C. and 5% CO2. Compound treatment is performed for 16-18 h (see Note 1). • 3. Day 2: Cell fixation. Cells are fixed by adding 10 μL/well 5× concentrated Mirsky's fixative supplemented with 25 μg/mL Hoechst33342. […] The 384-well plate is briefly spun down and incubated for 1 h at room temperature. Cells are then washed using a 384-well plate washer using a protocol which aspirates the volume down to 10 μL/well before dispensing 100 μL/well 1×TBS. Aspiration and dispensing steps are repeated 4 times and a final volume of 100 μL/well is left. The plate is sealed using an adhesive PCR foil. • 4. Imaging. The bottom of the plate is cleaned with 70% ethanol and then imaged using the InCell 1000 automated epifluorescence microscope. 20× magnification is used and 4 different areas (fields) are imaged per well, this typically captures a total of around 400 cells per well. Hoechst33342 images are acquired using an excitation of 360 nm (D360—40× filter), an emission of 460 nm (HQ460—40M filter) and an exposure time of 150 ms. GFP images are acquired using an excitation of 475 nm (S47520× filter), an emission of 535 nm (HQ535—50M filter) and an exposure time of 1 s. mCherry images are acquired using an excitation of 535 nm (HQ535—50× filter), an emission of 620 nm (HQ620—60M filter) and an exposure time of 1 s. A quadruple band pass mirror is used for all images. • 5. Image analysis. The InCell Analysis software is used to analyze the images using the Multi Target Analysis algorithm. First, nuclei are detected in the Hoechst33342 image using top-hat segmentation and a minimal nuclear area of 50 μm^2. Cells are defined using a collar of 10 μm around the nuclei. Second, puncta (organelles) are identified in the mCherry image inside the cells using multi-top-hat segmentation. Third, the mask of the mCherry puncta is transferred onto the GFP image. Fourth, the GFP fluorescence intensity inside the mCherry puncta mask is measured (reference intensity). • 6. The ‘organelles’ parameter reflects mCherry-positive puncta of the mCherry-GFP-LC3 reporter and is used to calculate ‘LC3 puncta/cell’. For this purpose, the number of organelles is calculated per cell and averaged over all the cells in a given well (average per cell basis). mCherry-positive LC3 puncta numbers (y-axis) are plotted against the compound dose response values (x-axis) and EC50 values are calculated for each compound. EC50 values represent compound potency in terms of autophagy activation (e.g. increase in mCherry-positive LC3 puncta count). Notes • 1. Autophagy-modulation and redistribution of mCherry-GFP-LC3 can be already observed after a compound treatment time of 3-4 h. […]

The next experiment concerns the target FRAP1/mTOR (Homo sapiens (Human), UniProt P42345). The experiment is described as follows: Test 2: mTOR Biochemical Assay (FRAP1/mTOR TR-FRET tracer assay). The class given is binding. Particulars: mTOR Kinase Tracer 314. (In general: In TR-FRET formats the signal depends on donor and acceptor labels being close together.)
The next experiment concerns the target PI3Kα (Homo sapiens (Human), UniProt P42336). The experiment is described as follows: Test 1: PI3 Kinase Assay (PI3K KinaseGlo assay). Format: biochemical. Particulars: 1 μM ATP.
[2] abbreviates: Table 1, mCherry-positive LC3 puncta/cell.
Where [3] appears, read: Table 4 (unit inferred), mCherry-positive LC3 puncta/cell.

Some results are limits rather than exact numbers.

FRAP1/mTOR, sequence (P42345 1360-2549): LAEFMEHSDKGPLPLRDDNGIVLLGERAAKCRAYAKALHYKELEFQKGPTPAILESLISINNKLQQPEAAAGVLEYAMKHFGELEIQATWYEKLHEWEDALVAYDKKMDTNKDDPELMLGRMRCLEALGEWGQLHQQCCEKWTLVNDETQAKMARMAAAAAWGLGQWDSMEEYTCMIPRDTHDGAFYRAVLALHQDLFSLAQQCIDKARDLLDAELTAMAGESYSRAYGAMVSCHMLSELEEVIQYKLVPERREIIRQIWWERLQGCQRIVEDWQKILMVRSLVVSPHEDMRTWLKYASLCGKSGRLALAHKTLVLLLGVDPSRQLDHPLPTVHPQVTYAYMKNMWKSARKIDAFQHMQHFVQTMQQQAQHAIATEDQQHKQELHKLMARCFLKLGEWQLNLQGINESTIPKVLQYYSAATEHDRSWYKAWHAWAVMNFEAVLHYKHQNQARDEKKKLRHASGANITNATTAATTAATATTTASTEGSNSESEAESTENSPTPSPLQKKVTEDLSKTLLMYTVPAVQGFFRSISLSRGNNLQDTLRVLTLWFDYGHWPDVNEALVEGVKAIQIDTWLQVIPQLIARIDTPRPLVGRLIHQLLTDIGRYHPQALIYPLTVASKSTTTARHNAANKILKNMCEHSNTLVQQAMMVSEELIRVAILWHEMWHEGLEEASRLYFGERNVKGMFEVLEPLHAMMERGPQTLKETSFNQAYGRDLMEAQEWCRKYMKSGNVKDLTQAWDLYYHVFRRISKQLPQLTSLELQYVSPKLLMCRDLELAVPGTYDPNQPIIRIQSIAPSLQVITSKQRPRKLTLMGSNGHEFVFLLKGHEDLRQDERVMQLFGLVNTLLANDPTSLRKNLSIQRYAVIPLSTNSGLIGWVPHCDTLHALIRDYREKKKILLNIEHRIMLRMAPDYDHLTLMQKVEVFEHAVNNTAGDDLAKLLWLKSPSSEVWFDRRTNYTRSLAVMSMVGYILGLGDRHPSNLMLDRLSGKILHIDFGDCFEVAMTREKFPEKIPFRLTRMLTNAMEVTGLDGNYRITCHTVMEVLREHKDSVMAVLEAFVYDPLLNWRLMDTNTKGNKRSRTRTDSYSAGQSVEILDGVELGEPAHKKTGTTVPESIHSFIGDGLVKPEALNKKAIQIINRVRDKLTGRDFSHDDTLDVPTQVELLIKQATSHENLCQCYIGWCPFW
PI3Kα, sequence (P42336 other isoform, or with tags, fused parts or gaps): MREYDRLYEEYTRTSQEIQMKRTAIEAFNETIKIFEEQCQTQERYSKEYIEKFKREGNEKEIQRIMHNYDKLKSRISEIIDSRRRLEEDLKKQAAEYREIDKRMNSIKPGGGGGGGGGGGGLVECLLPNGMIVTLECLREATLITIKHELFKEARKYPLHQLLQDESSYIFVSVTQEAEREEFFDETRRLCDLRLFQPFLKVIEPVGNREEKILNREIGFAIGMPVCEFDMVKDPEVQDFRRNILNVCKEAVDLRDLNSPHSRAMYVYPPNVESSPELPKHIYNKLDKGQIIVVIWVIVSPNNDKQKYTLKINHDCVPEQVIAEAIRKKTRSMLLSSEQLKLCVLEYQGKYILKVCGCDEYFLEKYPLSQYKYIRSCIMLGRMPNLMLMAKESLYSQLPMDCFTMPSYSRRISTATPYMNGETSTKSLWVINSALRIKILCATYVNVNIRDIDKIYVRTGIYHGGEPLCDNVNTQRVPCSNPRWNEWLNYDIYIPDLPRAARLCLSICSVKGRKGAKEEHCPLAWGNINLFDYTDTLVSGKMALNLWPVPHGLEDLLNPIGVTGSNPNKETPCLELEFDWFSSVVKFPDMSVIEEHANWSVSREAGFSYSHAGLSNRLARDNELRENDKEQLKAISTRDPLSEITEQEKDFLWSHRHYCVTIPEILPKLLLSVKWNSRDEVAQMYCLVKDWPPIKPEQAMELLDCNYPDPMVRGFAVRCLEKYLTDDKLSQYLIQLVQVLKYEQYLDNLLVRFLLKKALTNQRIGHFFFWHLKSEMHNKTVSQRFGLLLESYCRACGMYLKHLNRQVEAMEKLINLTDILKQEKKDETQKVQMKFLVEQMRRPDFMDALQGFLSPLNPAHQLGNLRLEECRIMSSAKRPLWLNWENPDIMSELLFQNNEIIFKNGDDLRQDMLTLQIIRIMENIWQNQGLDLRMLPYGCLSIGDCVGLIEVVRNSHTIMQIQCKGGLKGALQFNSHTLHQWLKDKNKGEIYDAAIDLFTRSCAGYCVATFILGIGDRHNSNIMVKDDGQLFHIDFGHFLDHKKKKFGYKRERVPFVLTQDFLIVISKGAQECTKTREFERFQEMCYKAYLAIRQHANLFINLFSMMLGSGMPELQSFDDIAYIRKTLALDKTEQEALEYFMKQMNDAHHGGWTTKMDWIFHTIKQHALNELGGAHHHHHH
Protocol for FRAP1/mTOR: IC50s for mTOR interacting compounds were assessed using the FRAP1/mTOR TR-FRET tracer assay (Invitrogen by Life Technologies). […] Compounds were serially diluted in DMSO (12-point, 4× dilution factor) and 1 μL of diluted compound was then added to each well and mixed by pipetting using a Biomek FX (Beckman Coulter).

Regarding `COC1CCN(c2nc(N3CCOCC3)c3nc(-c4cccc5[nH]ccc45)[nH]c3n2)CC1` [Example 25, 8-(1H-Indol-4-yl)-2-(4-methoxy-piperidin-1-yl)-6-morpholin-4-yl-9H-purine], the IC50 was 452 nM in experiment [1], 172 nM at FRAP1/mTOR and 2.07 µM against PI3Kα. The compound further returned an EC50 in the experiment with H4 mCherry-GFP-LC3 cells (setting [2]) of more than 700 nM.

Turning to `c1cc(-c2nc3c(N4CCOCC4)nc(N4CCOCC4)nc3[nH]2)c2cc[nH]c2c1` [Example 26, 8-(1H-Indol-4-yl)-2,6-di-morpholin-4-yl-9H-purine], the IC50 in experiment [1] was determined as 81 nM; on FRAP1/mTOR, 8 nM; at PI3Kα it was 0.57 µM. In the experiment on H4 mCherry-GFP-LC3 cells (setting [2]), this compound had an EC50 of 184 nM.

As to `c1cc(-c2nc3c(N4CCOCC4)nc(N4CCOCC4)nc3[nH]2)c2cn[nH]c2c1` [Example 27, 8-(1H-Indazol-4-yl)-2,6-di-morpholin-4-yl-9H-purine], the IC50 in experiment [1] amounted to 7190 nM; against FRAP1/mTOR it was 340 nM; on PI3Kα, 0.04 µM. For the same compound, the EC50 with H4 mCherry-GFP-LC3 cells (setting [2]) was found to be 5930 nM.

With `c1cc2ccc(-c3nc4c(N5CCOCC5)nc(N5CCOCC5)nc4[nH]3)cc2[nH]1` [Example 28, 8-(1H-Indol-6-yl)-2,6-di-morpholin-4-yl-9H-purine], the IC50 in experiment [1] stood at 458 nM; against FRAP1/mTOR it was 372 nM; on PI3Kα, 9.05 µM. In addition, the EC50 in the experiment with H4 mCherry-GFP-LC3 cells (setting [2]) was more than 200 nM.

Consider `Nc1cccc(-c2nc3c(N4CCOCC4)nc(N4CCOCC4)nc3[nH]2)c1` [Example 29, 3-(2,6-Di-morpholin-4-yl-9H-purin-8-yl)-phenylamine], for which the IC50 was found to be 2080 nM in experiment [1], 1210 nM at FRAP1/mTOR and 3.86 µM against PI3Kα. Also, the EC50 in the experiment with H4 mCherry-GFP-LC3 cells (setting [2]) is more than 5000 nM.

Regarding `CC(=O)Nc1cccc(-c2nc3c(N4CCOCC4)nc(N4CCOCC4)nc3[nH]2)c1` [Example 30, N-[3-(2,6-Di-morpholin-4-yl-9H-purin-8-yl)-phenyl]-acetamide], the IC50 in experiment [1] worked out at 1520 nM; against FRAP1/mTOR it was 1450 nM; against PI3Kα, 3.01 µM. Besides, in the experiment with H4 mCherry-GFP-LC3 cells (setting [2]), the EC50 is more than 2000 nM.

Regarding `CS(=O)(=O)Nc1cccc(-c2nc3c(N4CCOCC4)nc(N4CCOCC4)nc3[nH]2)c1` [Example 33, N-[3-(2,6-Di-morpholin-4-yl-9H-purin-8-yl)-phenyl]-methanesulfonamide], the IC50 in experiment [1] is 2990 nM; at FRAP1/mTOR, 380 nM; against PI3Kα, more than 9.1 µM. The compound further showed a 50% effective concentration (EC50) in the experiment on H4 mCherry-GFP-LC3 cells (setting [2]) of 7730 nM.

As to `CC1(C)COCCN1c1nc(N2CCOCC2)nc2[nH]c(-c3ccc4cc[nH]c4c3)nc12` [Example 39, 6-(3,3-Dimethyl-morpholin-4-yl)-8-(1H-indol-6-yl)-2-morpholin-4-yl-9H-purine], the IC50 in experiment [1] was 146 nM; against FRAP1/mTOR, 160 nM; against PI3Kα, 2.53 µM. In the experiment with H4 mCherry-GFP-LC3 cells (setting [3]), this compound returned a concentration for a half-maximal effect (EC50) of 2320 nM.

As for `CC1(C)COCCN1c1nc(N2CCOCC2)nc2[nH]c(-c3cccc4[nH]ccc34)nc12` [Example 40, 6-(3,3-Dimethyl-morpholin-4-yl)-8-(1H-indol-4-yl)-2-morpholin-4-yl-9H-purine], the IC50 in experiment [1] came to 841 nM; against FRAP1/mTOR it was 350 nM; at PI3Kα, 6.47 µM. The same compound had an EC50 in the experiment with H4 mCherry-GFP-LC3 cells (setting [3]) of more than 8000 nM.

With `C[C@@H]1COCCN1c1nc(N2CCOC[C@@H]2C)nc2[nH]c(-c3cccc4c3CCN4)nc12` [Example 41, 8-(2,3-Dihydro-1H-indol-4-yl)-2-((S)-3-methyl-morpholin-4-yl)-6-((R)-3-methyl-morpholin-4-yl)-9H-purine], the half-maximal inhibitory concentration (IC50) in experiment [1] was 457 nM; against FRAP1/mTOR, 30 nM; against PI3Kα it was 3.35 µM. Also, the EC50 with H4 mCherry-GFP-LC3 cells (setting [3]) stood at 2900 nM.

For `C[C@@H]1COCCN1c1nc(N2CCOC[C@H]2C)c2nc(-c3cccc4c3CCN4)[nH]c2n1` [Example 42, 8-(2,3-Dihydro-1H-indol-4-yl)-2,6-bis-((R)-3-methyl-morpholin-4-yl)-9H-purine], the values for the IC50 (in experiment [1]; against FRAP1/mTOR; against PI3Kα) were 99 nM, 40 nM and 4.91 µM, respectively. This compound also displayed an EC50 in the experiment on H4 mCherry-GFP-LC3 cells (setting [3]) of 4630 nM.

On to `C[C@@H]1COCCN1c1nc(N2CCOC[C@@H]2C)nc2[nH]c(-c3cccc4[nH]ccc34)nc12` [Example 43, 8-(1H-Indol-4-yl)-2-((S)-3-methyl-morpholin-4-yl)-6-((R)-3-methyl-morpholin-4-yl)-9H-purine], for which the IC50 came to 39 nM in experiment [1], 40 nM against FRAP1/mTOR and 1.01 µM against PI3Kα. Further, the response in the experiment with H4 mCherry-GFP-LC3 cells (setting [3]) was half-maximal at 160 nM (EC50).

In the case of `C[C@@H]1COCCN1c1nc(N2CCOC[C@@H]2C)nc2[nH]c(-c3ccc4cc[nH]c4c3)nc12` [Example 44, 8-(1H-Indol-6-yl)-2-((S)-3-methyl-morpholin-4-yl)-6-((R)-3-methyl-morpholin-4-yl)-9H-purine], the IC50 in experiment [1] is 388 nM; against FRAP1/mTOR, 140 nM; against PI3Kα, 5.95 µM. Further, the EC50 with H4 mCherry-GFP-LC3 cells (setting [3]) turned out to be 395 nM.

In the case of `C[C@@H]1COCCN1c1nc(N2CCOC[C@H]2C)c2nc(-c3ccc4cc[nH]c4c3)[nH]c2n1` [Example 45, 8-(1H-Indol-6-yl)-2,6-bis-((R)-3-methyl-morpholin-4-yl)-9H-purine], the IC50 in experiment [1] stood at 989 nM; against FRAP1/mTOR, 650 nM; against PI3Kα, 7.08 µM. Besides, the EC50 in the experiment with H4 mCherry-GFP-LC3 cells (setting [3]) was more than 400 nM.

For `C[C@@H]1COCCN1c1nc(N2CC3CCC(C2)O3)nc2[nH]c(-c3cccc4[nH]ccc34)nc12` [Example 46, 8-(1H-Indol-4-yl)-6-((R)-3-methyl-morpholin-4-yl)-2-(8-oxa-3-aza-bicyclo[3.2.1]oct-3-yl)-9H-purine], the IC50 in experiment [1] was 100 nM; at FRAP1/mTOR, 30 nM; against PI3Kα, 0.58 µM. Also, the EC50 with H4 mCherry-GFP-LC3 cells (setting [3]) was found to be 171 nM.

On to `C[C@@H]1COCCN1c1nc(N2CCOCC2)c2nc(-c3cccc4[nH]ccc34)[nH]c2n1` [Example 47, 8-(1H-Indol-4-yl)-2-((R)-3-methyl-morpholin-4-yl)-6-morpholin-4-yl-9H-purine], for which the IC50 was 111 nM in experiment [1], 60 nM against FRAP1/mTOR and 0.06 µM against PI3Kα. Moreover, a half-maximal response with H4 mCherry-GFP-LC3 cells (setting [3]) (EC50) required 461 nM.

Regarding `c1cc2ccc(-c3nc4c(N5C[C@@H]6C[C@H]5CO6)nc(N5CCOCC5)nc4[nH]3)cc2[nH]1` [Example 48, 8-(1H-Indol-6-yl)-2-morpholin-4-yl-6-(1S,4S)-2-oxa-5-aza-bicyclo[2.2.1]hept-5-yl-9H-purine], the IC50 stood at 1460 nM in experiment [1], 1010 nM at FRAP1/mTOR and 4.3 µM at PI3Kα. This compound displayed an EC50 with H4 mCherry-GFP-LC3 cells (setting [3]) of 6410 nM.

As to `C[C@H]1COCCN1c1nc(N2CCOCC2)c2nc(-c3ccc4cc[nH]c4c3)[nH]c2n1` [Example 49], the IC50 in experiment [1] was determined as 678 nM; against FRAP1/mTOR, 370 nM; against PI3Kα, 4.43 µM. This compound also had an EC50 in the experiment with H4 mCherry-GFP-LC3 cells (setting [3]) of more than 500 nM.

Consider `c1cc(-c2nc3c(N4C[C@@H]5C[C@H]4CO5)nc(N4CCOCC4)nc3[nH]2)c2cc[nH]c2c1` [Example 50, 8-(1H-Indol-4-yl)-2-morpholin-4-yl-6-(1S,4S)-2-oxa-5-aza-bicyclo[2.2.1]hept-5-yl-9H-purine], for which the figures for the IC50 (in experiment [1]; at FRAP1/mTOR; on PI3Kα) were 920 nM, 1200 nM and 4.22 µM, respectively. The compound also yielded an EC50 in the experiment on H4 mCherry-GFP-LC3 cells (setting [3]) of 8670 nM.

Values taken from US8987257B2 (Novartis AG, priority 2011, dated 2015).
